This passage reports EC50 results from patent publication US20260166128A1, “HUMAN AMYLIN ANALOG, AND DERIVATIVE THEREOF AND USE THEREOF” (priority 2022, published 2026).

Numbered stars: 1 amine (or outer) side, 2 acyl side, 3 side chain; on linkers, the order of the positions; unused ones are H or OH. Bridge positions count the residues as written; N and C are the ends. Square brackets hold non-standard residues; d marks the D form. Side chains are listed from the residue outwards. Peptide text beside a SMILES is read from it. * marks the point of attachment. C20 diacid = O=C(O)CCCCCCCCCCCCCCCCCCC(=O)*; γGlu = O=C(O)[C@H](CCC(=O)[*:2])N[*:1]; Hyp = O=C(O)[C@@H]1C[C@@H](O)CN1; X3 = O=C(C1CCC(CN[*:1])CC1)[*:2]

The term EC50 denotes the midpoint of the concentration-response curve.

The test concerns the target T1, human amylin receptor (Homo sapiens, UniProt O60896+P30988).
T1 construct: host or cells: CHO-K1/Ga15/AMY3 cells, further stably transfected with a CRE-luciferase plasmid
T1 sequence (P30988 25-474): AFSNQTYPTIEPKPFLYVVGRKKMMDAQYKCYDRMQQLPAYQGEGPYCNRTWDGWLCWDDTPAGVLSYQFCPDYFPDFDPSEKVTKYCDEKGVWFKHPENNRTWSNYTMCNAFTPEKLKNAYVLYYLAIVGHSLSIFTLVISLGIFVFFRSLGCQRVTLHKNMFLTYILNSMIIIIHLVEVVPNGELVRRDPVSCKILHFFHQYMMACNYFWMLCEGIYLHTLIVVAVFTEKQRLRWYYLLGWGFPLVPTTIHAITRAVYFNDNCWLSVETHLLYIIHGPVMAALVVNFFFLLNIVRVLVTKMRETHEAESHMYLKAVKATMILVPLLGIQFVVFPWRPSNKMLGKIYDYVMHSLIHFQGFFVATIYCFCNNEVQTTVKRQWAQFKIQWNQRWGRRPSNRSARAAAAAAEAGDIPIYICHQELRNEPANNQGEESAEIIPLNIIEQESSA
T1 sequence (O60896 24-148 partner): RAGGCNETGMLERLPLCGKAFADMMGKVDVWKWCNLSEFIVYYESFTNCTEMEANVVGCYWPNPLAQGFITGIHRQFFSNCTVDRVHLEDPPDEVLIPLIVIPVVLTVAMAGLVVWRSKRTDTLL
As to the kind of experiment: Luciferase assay of amylin derivatives in amylin receptor/CRE-luc CHO cell line. It counts as cell-based. Conditions: CHO-K1/Ga15/AMY3 CRE-luc cells, 24 hours incubation, F12 medium containing 10% FBS; read-out: EC50.
Description: The experiment was intended to detect the activity or efficacy of the amylin derivatives on a human amylin receptor in vitro by luciferase assay.
50 μL of growth medium (F12 medium containing 10% FBS) was added into each well of a white 96-well plate, and the stably transfected amylin/CRE-lue CHO cells were inoculated into the white 96-well plate at a density of about 20,000 cells/well for activity determination.
Regarding `CC[C@H](C)[C@H](NC(=O)[C@@H]1CCCN1C(=O)C1CCC(CNC(=O)[C@H](CC(C)C)NC(=O)[C@H](CC(N)=O)NC(=O)[C@H](CC(N)=O)NC(=O)[C@H](CO)NC(=O)[C@H](CO)NC(=O)[C@H](Cc2c[nH]cn2)NC(=O)[C@H](CCCNC(=N)N)NC(=O)[C@H](CC(C)C)NC(=O)[C@H](Cc2ccccc2)NC(=O)[C@H](CC(=O)O)NC(=O)[C@H](C)NC(=O)[C@H](CC(C)C)NC(=O)[C@H](CCCNC(=N)N)NC(=O)[C@H](CCC(N)=O)NC(=O)[C@@H](NC(=O)[C@H](C)NC(=O)[C@@H]2CSSC[C@H](NC(=O)[C@H](CCCCN)NC(=O)CC[C@H](NC(=O)CCCCCCCCCCCCCCCCCCC(=O)O)C(=O)O)C(=O)N[C@@H](CC(N)=O)C(=O)N[C@@H]([C@@H](C)O)C(=O)N[C@@H](C)C(=O)N[C@@H]([C@@H](C)O)C(=O)N2)[C@@H](C)O)CC1)C(=O)N[C@@H](CC(C)C)C(=O)N1CCC[C@H]1C(=O)N1CCC[C@H]1C(=O)N[C@H](C(=O)N[C@@H](CC(N)=O)C(=O)N[C@H](C(=O)NCC(=O)N[C@@H](CO)C(=O)N[C@@H](CC(N)=O)C(=O)N[C@H](C(=O)N1CCC[C@H]1C(N)=O)[C@@H](C)O)C(C)C)[C@@H](C)O` (stereo partly drawn) [PD173] ({C20 diacid-γGlu}-KCNTATCATQRLADFLRHSSNNL[X3]PILPPTNVGSNTP-NH2; disulfide 2-7), the EC50 stood at 0.064 nM.

In the case of `CC[C@H](C)[C@H](NC(=O)[C@@H]1CCCN1C(=O)[C@H](CCCNC(=N)N)NC(=O)[C@H](CC(C)C)NC(=O)[C@H](CC(N)=O)NC(=O)[C@H](CC(N)=O)NC(=O)[C@H](CO)NC(=O)[C@H](CO)NC(=O)[C@H](Cc1c[nH]cn1)NC(=O)[C@H](CCCNC(=N)N)NC(=O)[C@H](CC(C)C)NC(=O)[C@H](Cc1ccccc1)NC(=O)[C@H](CC(=O)O)NC(=O)[C@H](C)NC(=O)[C@H](CC(C)C)NC(=O)[C@H](CCCNC(=N)N)NC(=O)[C@H](CCC(N)=O)NC(=O)[C@@H](NC(=O)[C@H](C)NC(=O)[C@@H]1CSSC[C@H](NC(=O)[C@H](CCCNC(=N)N)NC(=O)CC[C@H](NC(=O)CCCCCCCCCCCCCCCCCCC(=O)O)C(=O)O)C(=O)N[C@@H](CC(N)=O)C(=O)N[C@@H]([C@@H](C)O)C(=O)N[C@@H](C)C(=O)N[C@@H]([C@@H](C)O)C(=O)N1)[C@@H](C)O)C(=O)N[C@@H](CC(C)C)C(=O)N1CCC[C@H]1C(=O)N1CCC[C@H]1C(=O)N[C@H](C(=O)N[C@@H](CC(N)=O)C(=O)N[C@H](C(=O)NCC(=O)N[C@@H](CO)C(=O)N[C@@H](CC(N)=O)C(=O)N[C@H](C(=O)N1CCC[C@H]1C(N)=O)[C@@H](C)O)C(C)C)[C@@H](C)O` [PD197] ({C20 diacid-γGlu}-RCNTATCATQRLADFLRHSSNNLRPILPPTNVGSNTP-NH2; disulfide 2-7 (inferred)), the EC50 was found to be 0.025 nM.

Consider `CC[C@H](C)[C@H](NC(=O)[C@@H]1CCCN1C(=O)CNC(=O)[C@H](CC(C)C)NC(=O)[C@H](CC(N)=O)NC(=O)[C@H](CCCCNC(=O)CC[C@H](NC(=O)CCCCCCCCCCCCCCCCCCC(=O)O)C(=O)O)NC(=O)[C@H](CO)NC(=O)[C@H](CO)NC(=O)[C@H](Cc1c[nH]cn1)NC(=O)[C@H](CCCNC(=N)N)NC(=O)[C@H](CC(C)C)NC(=O)[C@H](Cc1ccccc1)NC(=O)[C@H](CC(=O)O)NC(=O)[C@H](C)NC(=O)[C@H](CC(C)C)NC(=O)[C@H](CCCNC(=N)N)NC(=O)[C@H](CCC(N)=O)NC(=O)[C@@H](NC(=O)[C@H](C)NC(=O)[C@@H]1CSSC[C@H](NC(=O)[C@@H](N)CCCNC(=N)N)C(=O)N[C@@H](CC(N)=O)C(=O)N[C@@H]([C@@H](C)O)C(=O)N[C@@H](C)C(=O)N[C@@H]([C@@H](C)O)C(=O)N1)[C@@H](C)O)C(=O)N[C@@H](CC(C)C)C(=O)N1CCC[C@H]1C(=O)N1CCC[C@H]1C(=O)N[C@H](C(=O)N[C@@H](CC(N)=O)C(=O)N[C@H](C(=O)NCC(=O)N[C@@H](CO)C(=O)N[C@@H](CC(N)=O)C(=O)N[C@H](C(=O)N1C[C@H](O)C[C@H]1C(N)=O)[C@@H](C)O)C(C)C)[C@@H](C)O` [PD090] (H-RCNTATCATQRLADFLRHSSK([γGlu-C20 diacid])NLGPILPPTNVGSNT[Hyp]-NH2; disulfide 2-7), for which the half-maximal effective concentration (EC50) turned out to be 0.031 nM.
